# Data: patent publication US9670227B2, “Thienopyrimidine derivatives, a process for their preparation and pharmaceutical compositions containing them” (LES LABORATOIRES SERVIER, priority 2013, dated 2017)
# Where two headings read alike, the source gives them in different places.
# What was measured:
# [1] = system: H929 multiple myeloma tumour line; assay: In vitro cytotoxicity, Microculture Tetrazolium Assay; format: cell-based; settings: H929 cells, 48 hours exposure, MTT, read-out: IC50 (μM) MTT H929
# Protocol: The cytotoxicity studies were carried out on the H929 multiple myeloma tumour line.
# The cells are distributed onto microplates and exposed to the test compounds for 48 hours.
# Mcl-1 protein = Mcl-1 protein (UniProtKB primary accession number: Q07820) (Homo sapiens, UniProt Q07820); assay: Inhibition of Mcl-1 by fluorescence polarisation, Method 1; format: binding; settings: read-out: IC50 (M) Mcl-1 FP
# In short: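 FP competition, 11-point compound titration in 5% final DMSO; protein and labelled probe at 5 nM and 1 nM final in HEPES/NaCl/Tween 20 buffer, pH 7.4.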
# [2] = fluorescence polarisation test, Method 2 values are underlined in the patent (underlining not visible here)
# [3] = fluorescence polarisation, Method 1, or Method 2
# Mcl-1 protein, sequence (Q07820 whole entry): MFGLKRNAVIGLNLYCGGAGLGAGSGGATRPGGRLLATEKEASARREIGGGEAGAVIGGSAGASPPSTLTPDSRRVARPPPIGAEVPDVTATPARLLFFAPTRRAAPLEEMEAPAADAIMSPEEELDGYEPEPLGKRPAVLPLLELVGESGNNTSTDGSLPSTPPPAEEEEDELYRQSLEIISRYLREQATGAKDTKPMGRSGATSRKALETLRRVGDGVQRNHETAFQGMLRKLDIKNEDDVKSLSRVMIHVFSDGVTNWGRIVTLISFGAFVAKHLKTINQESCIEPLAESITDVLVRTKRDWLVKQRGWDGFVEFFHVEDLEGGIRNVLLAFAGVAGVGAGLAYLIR
Compound,IC50 (Mcl-1 protein; [2]),IC50 (Mcl-1 protein; [3]),"IC50 ([1]; Homo sapiens, NCI-H929, 48 h)",IC50 [1]
"CCCNC(=O)COc1ccccc1CC(Oc1ncnc2sc(-c3ccc(F)o3)c(-c3ccc(OCCN4CCN(C)CC4)c(Cl)c3C)c12)C(=O)O [Example 154, (2R)-2-{[(5Sa)-5-{3-chloro-2-methyl-4-[2-(4-methylpiperazin-1-yl)ethoxy]phenyl}-6-(5-fluorofuran-2-yl)thieno[2,3-d]pyrimidin-4-yl]oxy}-3-{2-[2-oxo-2-(propylamino)ethoxy]phenyl}propanoic acid]",6.6e-09 M,–,0.1 µM,–
"Cc1c(-c2c(-c3ccco3)sc3ncnc(OC(Cc4ccccc4OCc4cc(-c5ccco5)nn4C)C(=O)O)c23)ccc(OCCN2CCN(C)CC2)c1Cl [Example 228, (2R)-2-{[(5Sa)-5-{3-chloro-2-methyl-4-[2-(4-methylpiperazin-1-yl)ethoxy]phenyl}-6-(furan-2-yl)thieno[2,3-d]pyrimidin-4-yl]oxy}-3-(2-{[3-(furan-2-yl)-1-methyl-1H-pyrazol-5-yl]methoxy}phenyl)propanoic acid]",2.2e-08 M,–,0.166 µM,–
"Cc1c(-c2c(-c3ccco3)sc3ncnc(OC(Cc4ccccc4SCC(F)(F)F)C(=O)O)c23)ccc(OCCN2CCN(C)CC2)c1Cl [Example 362, (2R)-2-{[(5Sa)-5-{3-chloro-2-methyl-4-[2-(4-methylpiperazin-1-yl)ethoxy]phenyl}-6-(furan-2-yl)thieno[2,3-d]pyrimidin-4-yl]oxy}-3-{2-[(2,2,2-trifluoroethyl)sulfanyl]phenyl}propanoic acid]",2.6e-08 M,–,1 µM,–
"Cc1c(-c2c(-c3ccn(C)n3)sc3ncnc(OC(Cc4ccccc4)C(=O)O)c23)ccc(OCCN2CCN(C)CC2)c1Cl [Example 506, (2R)-2-{[(5Sa)-5-{3-chloro-2-methyl-4-[2-(4-methylpiperazin-1-yl)ethoxy]phenyl}-6-(1-methyl-1H-pyrazol-3-yl)thieno[2,3-d]pyrimidin-4-yl]oxy}-3-phenylpropanoic acid]",–,7.5e-08 M,8.29 µM,–
"Cc1c(-c2c(-c3ccc(F)o3)sc3ncnc(OC(Cc4ccccc4OCc4ccnc(OCC(F)(F)F)n4)C(=O)O)c23)ccc(OCCN(C)C)c1Cl [Example 203, (2R)-2-{[(5Sa)-5-{3-chloro-4-[2-(dimethylamino)ethoxy]-2-methylphenyl}-6-(5-fluorofuran-2-yl)thieno[2,3-d]pyrimidin-4-yl]oxy}-3-(2-{[2-(2,2,2-trifluoroethoxy)pyrimidin-4-yl]methoxy}phenyl)propanoic acid]",9.1e-09 M,–,0.005 µM,–
"Cc1c(-c2c(-c3ccco3)sc3ncnc(OC(Cc4ccccc4OCC4CCCC4)C(=O)O)c23)ccc(OCCN2CCN(C)CC2)c1Cl [Example 239, (2R)-2-{[(5Sa)-5-{3-chloro-2-methyl-4-[2-(4-methylpiperazin-1-yl)ethoxy]phenyl}-6-(furan-2-yl)thieno[2,3-d]pyrimidin-4-yl]oxy}-3-[2-(cyclopentylmethoxy)phenyl]propanoic acid]",1.1e-08 M,–,0.55 µM,–
"CCCCn1nccc1COc1ccccc1CC(Oc1ncnc2sc(C#CCOC)c(-c3ccc(OCCN4CCN(C)CC4)c(Cl)c3C)c12)C(=O)O [Example 613, (2R)-3-{2-[(1-butyl-1H-pyrazol-5-yl)methoxy]phenyl}-2-{[(5Sa)-5-{3-chloro-2-methyl-4-[2-(4-methylpiperazin-1-yl)ethoxy]phenyl}-6-(3-methoxyprop-1-yn-1-yl)thieno[2,3-d]pyrimidin-4-yl]oxy}propanoic acid]",–,3.5e-09 M,0.158 µM,–
"Cc1c(-c2c(-c3ccc(F)cc3)sc3ncnc(O[C@H](Cc4ccccc4OCc4cnccn4)C(=O)O)c23)ccc(OCC2CCCCN(C)C2)c1Cl (stereo partly drawn) [Example 144, (2R)-2-{[(5Sa)-5-{3-chloro-2-methyl-4-[(1-methylazepan-3-yl)methoxy]phenyl}-6-(4-fluorophenyl)thieno[2,3-d]pyrimidin-4-yl]oxy}-3-[2-(pyrazin-2-ylmethoxy)phenyl]propanoic acid]",1.6e-08 M,–,–,1.6 µM
"COc1ccccc1CC(Oc1ncnc2sc(-c3ccc(F)cc3F)c(-c3ccc(OCCN4CCN(C)CC4)c(Cl)c3C)c12)C(=O)O [Example 540, (2R)-2-{[(5Sa)-5-{3-chloro-2-methyl-4-[2-(4-methylpiperazin-1-yl)ethoxy]phenyl}-6-(2,4-difluorophenyl)thieno[2,3-d]pyrimidin-4-yl]oxy}-3-(2-methoxyphenyl)propanoic acid]",–,3.2e-09 M,0.311 µM,–

# Second part, led by results:
IC50 (Mcl-1 protein; [2]),IC50 (Mcl-1 protein; [3]),Compound,"IC50 ([1]; Homo sapiens, NCI-H929, 48 h)",IC50 [1]
–,9.48e-10 M,"COc1ccccc1-c1nccc(COc2ccccc2CC(Oc2ncnc3sc(-c4ccc(OCc5ccn(C)n5)cc4)c(-c4ccc(OCCN5CCN(C)CC5)c(Cl)c4C)c23)C(=O)O)n1 [Example 776, (2R)-2-[((5Sa)-5-{3-chloro-2-methyl-4-[2-(4-methylpiperazin-1-yl)ethoxy]phenyl}-6-{4-[(1-methyl-1H-pyrazol-3-yl)methoxy]phenyl}thieno[2,3-d]pyrimidin-4-yl)oxy]-3-(2-{[2-(2-methoxyphenyl)pyrimidin-4-yl]methoxy}phenyl)propanoic acid]",0.007 µM,–
–,2.4e-09 M,"COc1ccc(COc2ccccc2CC(Oc2ncnc3sc(-c4cccc(F)c4)c(-c4ccc(OCCN5CCN(C)CC5)c(Cl)c4C)c23)C(=O)O)cc1 [Example 710, (2R)-2-{[(5Sa)-5-{3-chloro-2-methyl-4-[2-(4-methylpiperazin-1-yl)ethoxy]phenyl}-6-(3-fluorophenyl)thieno[2,3-d]pyrimidin-4-yl]oxy}-3-{2-[(4-methoxybenzyl)oxy]phenyl}propanoic acid]",0.384 µM,–
1.1e-08 M,–,"Cc1c(-c2c(-c3ccc(F)cc3)sc3ncnc(OC(Cc4ccccc4OCc4ccnc(-c5nccs5)n4)C(=O)O)c23)ccc(OCCN2CCN(C)CC2)c1Cl [Example 36, (2R)-2-{[(5Sa)-5-{3-chloro-2-methyl-4-[2-(4-methylpiperazin-1-yl)ethoxy]phenyl}-6-(4-fluorophenyl)thieno[2,3-d]pyrimidin-4-yl]oxy}-3-(2-{[2-(1,3-thiazol-2-yl)pyrimidin-4-yl]methoxy}phenyl)propanoic acid]",0.015 µM,–
4e-09 M,–,"Cc1c(-c2c(-c3ccco3)sc3ncnc(OC(Cc4ccccc4OCc4ccnc(Cl)n4)C(=O)O)c23)ccc(OCCN2CCN(C)CC2)c1Cl [Example 249, (2R)-2-{[(5Sa)-5-{3-chloro-2-methyl-4-[2-(4-methylpiperazin-1-yl)ethoxy]phenyl}-6-(furan-2-yl)thieno[2,3-d]pyrimidin-4-yl]oxy}-3-{2-[(2-chloropyrimidin-4-yl)methoxy]phenyl}propanoic acid]",0.023 µM,–
1.1e-08 M,–,"Cc1c(-c2c(-c3ccc(F)cc3)sc3ncnc(OC(Cc4ccccc4OCc4ccnc(C5CC5)n4)C(=O)O)c23)ccc(OCCN2CCN(C)CC2)c1Cl [Example 26, (2R)-2-{[(5Sa)-5-{3-chloro-2-methyl-4-[2-(4-methylpiperazin-1-yl)ethoxy]phenyl}-6-(4-fluorophenyl)thieno[2,3-d]pyrimidin-4-yl]oxy}-3-{2-[(2-cyclopropylpyrimidin-4-yl)methoxy]phenyl}propanoic acid]",0.028 µM,–
1.4e-08 M,–,"COc1ccnc(COc2ccccc2CC(Oc2ncnc3sc(-c4ccco4)c(-c4ccc(OCCN5CCN(C)CC5)c(Cl)c4C)c23)C(=O)O)c1 [Example 223, (2R)-2-{[(5Sa)-5-{3-chloro-2-methyl-4-[2-(4-methylpiperazin-1-yl)ethoxy]phenyl}-6-(furan-2-yl)thieno[2,3-d]pyrimidin-4-yl]oxy}-3-{2-[(4-methoxypyridin-2-yl)methoxy]phenyl}propanoic acid]",0.346 µM,–
5.2e-09 M,–,"Cc1c(-c2c(-c3ccco3)sc3ncnc(OC(Cc4ccccc4OCc4ccncn4)C(=O)O)c23)ccc(OCCN2CCN(C)CC2)c1Cl [Example 259, (2R)-2-{[(5Sa)-5-{3-chloro-2-methyl-4-[2-(4-methylpiperazin-1-yl)ethoxy]phenyl}-6-(furan-2-yl)thieno[2,3-d]pyrimidin-4-yl]oxy}-3-[2-(pyrimidin-4-ylmethoxy)phenyl]propanoic acid]",0.07 µM,–
9.8e-09 M,–,"Cc1c(-c2c(-c3ccc(F)cc3)sc3ncnc(OC(Cc4ccccc4OCc4ccnc(CCN(C)C)n4)C(=O)O)c23)ccc(OCCN2CCN(C)CC2)c1Cl [Example 43, (2R)-2-{[(5Sa)-5-{3-chloro-2-methyl-4-[2-(4-methylpiperazin-1-yl)ethoxy]phenyl}-6-(4-fluorophenyl)thieno[2,3-d]pyrimidin-4-yl]oxy}-3-[2-({2-[2-(dimethylamino)ethyl]pyrimidin-4-yl}methoxy)phenyl]propanoic acid]",0.465 µM,–
3.2e-09 M,–,"COc1cc(-c2sc3ncnc(OC(Cc4ccccc4OC)C(=O)O)c3c2-c2ccc(OCCN3CCN(C)CC3)c(Cl)c2C)ccc1F [Example 378, (2R)-2-{[(5Sa)-5-{3-chloro-2-methyl-4-[2-(4-methylpiperazin-1-yl)ethoxy]phenyl}-6-(4-fluoro-3-methoxyphenyl)thieno[2,3-d]pyrimidin-4-yl]oxy}-3-(2-methoxyphenyl)propanoic acid]",0.202 µM,–
–,6.8e-09 M,"COc1nccc(COc2ccccc2CC(Oc2ncnc3sc(-c4ccc(F)cc4)c(-c4cnc(OCCN5CCN(C)CC5)c(Cl)c4C)c23)C(=O)O)n1 [Example 651, (2R)-2-{[(5Ra)-5-{5-chloro-4-methyl-6-[2-(4-methylpiperazin-1-yl)ethoxy]pyridin-3-yl}-6-(4-fluorophenyl)thieno[2,3-d]pyrimidin-4-yl]oxy}-3-{2-[(2-methoxypyrimidin-4-yl)methoxy]phenyl}propanoic acid]",0.282 µM,–
